According to patent US11597920B2, “Compositions and methods for enhancing reverse transcriptase activity and/or reducing the inhibition of reverse transcriptase” (BIO-RAD LABORATORIES, INC., priority 2019, dated 2023):

Tests used:
Assay type in all cases: biochemical
[1] = test system: thermo-stable RT (e.g., MMLV or engineered MMLV); assay: RT-qPCR: RT tolerance to tannic acid
Method: (§1) An RT reaction buffer was formulated so that the RT reaction can be carried out after being mixed together with thermo-stable RT (e.g., MMLV or engineered MMLV) and RNA templates (e.g., Hela RNA). In a 20 μl RT reaction mix there is 1 u of RT enzyme, 10 u of Rnasin (Rnase inhibitor), nucleotides each at 1.5 mM (e.g., dATP, dCTP, dGTP, dTTP), random hexamer, oligo dT, or gene-specific oligo nucleotides at appropriate concentration (0.5 to 1 uM), 4% glycerol, 0.01% detergent (e.g., Tween 20), with or without RT inhibitors (e.g., Heparin, Ethanol, Guanidine Hydrochloride, Formalin, Tannic acid, etc.) or additives that improve RT reaction efficiency or sensitivity (e.g., PVSA). The RT reaction was completed in a T100 Thermo Cycler (Bio-Rad Laboratories Inc. Hercules, Calif.). The RT reaction protocol was as follows: 50° C. 20 min, 95° C. 1 min, and incubation at 4° C.
After RT reaction, the RT products were used for qPCR reaction using SsoAdvanced Universal SYBR Green Supermix (Bio-Rad Laboratories Inc. Hercules, Calif.). The RT product inputs in qPCR reaction ranged from 10% to 0.1% of qPCR reaction, depending on the expression abundance of target genes. Target gene primers (Table 3) at 250 nM were used. […] 30S annealing/extension/read. […]
(§2) Human GAPDH target gene was detected in the qPCR reaction.

[2] = test system: thermo-stable RT (e.g., MMLV or engineered MMLV); assay: RT-qPCR: RT tolerance to formalin; conditions: for qPCR results from the RT products compared with the RT products without formalin: Human GAPDH
Method: as §1
After RT reaction, the RT products were used for qPCR reaction using SsoAdvanced Universal SYBR Green Supermix (Bio-Rad Laboratories Inc. Hercules, Calif.). The RT product inputs in qPCR reaction ranged from 10% to 0.1% of qPCR reaction, depending on the expression abundance of target genes. Target gene primers (Table 3) at 250 nM were used. The following protocol of qPCR was used on CFC348 Thermo Cycler (Bio-Rad Laboratories Inc. Hercules, Calif.): 95° C. denaturation for 2 min, 40 cycles of 95° C. 5S denaturation, 60° C. 30S annealing/extension/read. After qPCR reaction, Cq values from RT products with and without inhibitors were compared, and usually Cq values were delayed (bigger values) when inhibitors were present. The larger the Cq value relative to no inhibitor RT products, the more inhibition of RT reaction observed.
as §2

[3] = test system: thermo-stable RT (e.g., MMLV or engineered MMLV); assay: RT-qPCR: RT tolerance to heparin (Cq delay of RT products); conditions: for Heparin tolerance: FIG. 2
Method: (§3) An RT reaction buffer was formulated so that the RT reaction can be carried out after being mixed together with thermo-stable RT (e.g., MMLV or engineered MMLV) and RNA templates (e.g., Hela RNA). […] The RT reaction was completed in a T100 Thermo Cycler (Bio-Rad Laboratories Inc. Hercules, Calif.). The RT reaction protocol was as follows: 50° C. 20 min, 95° C. 1 min, and incubation at 4° C.
(§4) After RT reaction, the RT products were used for qPCR reaction using SsoAdvanced Universal SYBR Green Supermix (Bio-Rad Laboratories Inc. Hercules, Calif.). The RT product inputs in qPCR reaction ranged from 10% to 0.1% of qPCR reaction, depending on the expression abundance of target genes. Target gene primers (Table 3) at 250 nM were used. The following protocol of qPCR was used on CFC348 Thermo Cycler (Bio-Rad Laboratories Inc. Hercules, Calif.): 95° C. denaturation for 2 min, 40 cycles of 95° C. 5S denaturation, 60° C. 30S annealing/extension/read.

[4] = test system: thermo-stable RT (e.g., MMLV or engineered MMLV); assay: RT-qPCR: RT tolerance to other inhibitors (ethanol, guanidine hydrochloride); conditions: 7.5% Ethanol and 50 mM Guanidinum hydrochloride
Method: as §3, §4

Compound: O=C(OC[C@H]1O[C@@H](OC(=O)c2cc(O)c(O)c(OC(=O)c3cc(O)c(O)c(O)c3)c2)[C@H](OC(=O)c2cc(O)c(O)c(OC(=O)c3cc(O)c(O)c(O)c3)c2)[C@@H](OC(=O)c2cc(O)c(O)c(OC(=O)c3cc(O)c(O)c(O)c3)c2)[C@@H]1OC(=O)c1cc(O)c(O)c(OC(=O)c2cc(O)c(O)c(O)c2)c1)c1cc(O)c(O)c(OC(=O)c2cc(O)c(O)c(O)c2)c1 [Tannic acid]
- Cq delay ([1]; Tannic acid 0.1 μg/μl in the RT reaction, no Poloxamer): over 13
- qPCR results from the RT products compared with the RT products without tannic acid ([1]; tannic acid 0.1 μg/μl, Human GAPDH): greatly delayed

Compound: Cl.N[C@@H](Cc1c[nH]cn1)C(=O)O.O [His-HCl, histidine hydrochloride monohydrate]
- qPCR results from the RT products compared with the RT products without formalin ([2]; Formalin 0.125% plus 15 to 20 mM His-HCl): did not show a lot delay
- Cq delay ([2]; formalin with 15 to 20 mM His-HCl present): less than 1

Compound: N.N.O=S(=O)(O)O [(NH4)2SO4]
- Heparin tolerance [3]: also improves Heparin tolerance though not as effect as K-Glu
- tolerance to other inhibitors [4]: compromises Ethanol and GC tolerance

Compound: C=O [Formalin]
- qPCR results from the RT products compared with the RT products without formalin ([2]; Formalin 0.125% in RT reaction): significantly delayed
- Cq delay ([2]; formalin in RT reaction, without His-HCl): about 4

Compound: N[C@@H](Cc1c[nH]cn1)C(=O)O [histidine]
- efficiency of the amplification reaction as compared to a control lacking histidine ([2]; reaction mixtures containing formalin): improved the efficiency

Compound: N[C@@H](CCC(=O)[O-])C(=O)[O-].[K+].[K+] [K-Glu, Potassium Glutamate]
- Heparin tolerance [3]: improves Heparin tolerance
- Cq delay ([3]; Heparin 0.003 U/μl with 100 mM K-Glu present): less than 1
- qPCR from the RT products compared with the RT products without heparin ([3]; Heparin 0.0034 u/μl plus 100 mM potassium Glutamate in RT reaction): did not show much delay
- tolerance to other inhibitors [4]: without compromising tolerance

Compound: Heparin
- Cq delay ([3]; Heparin 0.003 U/μl in the RT reaction, no K-Glu): over 7
- qPCR from the RT products compared with the RT products without heparin ([3]; Heparin 0.0034 u/μl in RT reaction, GAPDH and 18S): greatly delayed
